Data on 2 molecules can be found in patent US20070099268A1, “Chimeric HCN channels” (priority 2005, published 2007).

For one experiment, the system named is hMSCs loaded with HCN2. The settings on record: cited from earlier work.
Experiment [1] has as its system native pacemaker current in sinus node. The settings on record: cited from earlier work.
The test system of a further experiment is AdHCN2 infected culture. Nature of the experiment: Modulation of spontaneous rate by drugs in an AdHCN2 infected culture. The settings on record: superfusion with drug; control record of same culture 48, 54 and 96 beats/min respectively. The format is cell-based, rat.
Experiment [2] deals with expressed HCN2 current in a neonatal ventricular myocyte. Nature of the experiment: Effect of threshold concentration of isoproterenol on expressed HCN2 current, two-step voltage protocol. The format is cell-based, rat. An excerpt: The effect of isoproterenol is to shift the activation curve positive without increasing maximal current. This effect can be visualized by a two-step voltage protocol, with the first step to the midpoint of the activation curve and the second step to the maximum curve. FIG. 23 employs this two-step protocol to illustrate that this threshold concentration of isoproterenol shifts the activation curve of over-expressed HCN2 in a neonatal rat ventricle cell.

The target of a further experiment is T1, HCN2 (Mus musculus, UniProt O88703).
T1 sequence (O88703 1-863): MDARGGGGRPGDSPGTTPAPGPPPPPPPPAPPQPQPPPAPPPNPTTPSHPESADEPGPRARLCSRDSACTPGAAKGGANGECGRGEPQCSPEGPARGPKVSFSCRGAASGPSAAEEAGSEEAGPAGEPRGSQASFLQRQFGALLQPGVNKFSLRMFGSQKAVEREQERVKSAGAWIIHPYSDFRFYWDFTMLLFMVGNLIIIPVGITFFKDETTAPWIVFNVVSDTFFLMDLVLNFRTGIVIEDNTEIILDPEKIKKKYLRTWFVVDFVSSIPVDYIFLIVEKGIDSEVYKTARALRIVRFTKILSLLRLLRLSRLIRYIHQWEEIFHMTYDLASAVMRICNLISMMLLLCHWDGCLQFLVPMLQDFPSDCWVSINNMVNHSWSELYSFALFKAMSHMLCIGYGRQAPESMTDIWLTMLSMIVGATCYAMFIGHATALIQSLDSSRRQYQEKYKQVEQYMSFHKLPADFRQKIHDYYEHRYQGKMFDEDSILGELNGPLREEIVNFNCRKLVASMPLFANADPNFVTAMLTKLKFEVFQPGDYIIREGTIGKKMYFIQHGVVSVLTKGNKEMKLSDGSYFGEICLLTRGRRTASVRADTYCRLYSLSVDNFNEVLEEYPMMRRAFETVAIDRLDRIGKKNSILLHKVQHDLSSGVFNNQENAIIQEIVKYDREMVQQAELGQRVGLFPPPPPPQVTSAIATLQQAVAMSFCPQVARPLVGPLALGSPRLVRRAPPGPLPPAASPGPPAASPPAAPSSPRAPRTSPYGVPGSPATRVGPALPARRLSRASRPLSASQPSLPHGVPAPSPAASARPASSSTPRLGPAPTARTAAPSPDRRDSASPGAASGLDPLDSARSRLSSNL
Nature of the experiment: Coexpression of HCN2 with MiRP1 or minK in Xenopus oocytes, two-microelectrode voltage clamp. The settings on record: maximal conductance.

A further experiment addresses HCN1 (Mus musculus, UniProt O88704). Put plainly: Coexpression of HCN1 with MiRP1 or minK in Xenopus oocytes, two-microelectrode voltage clamp. The settings on record: maximal conductance.

Sequence of HCN1 (O88704 whole entry): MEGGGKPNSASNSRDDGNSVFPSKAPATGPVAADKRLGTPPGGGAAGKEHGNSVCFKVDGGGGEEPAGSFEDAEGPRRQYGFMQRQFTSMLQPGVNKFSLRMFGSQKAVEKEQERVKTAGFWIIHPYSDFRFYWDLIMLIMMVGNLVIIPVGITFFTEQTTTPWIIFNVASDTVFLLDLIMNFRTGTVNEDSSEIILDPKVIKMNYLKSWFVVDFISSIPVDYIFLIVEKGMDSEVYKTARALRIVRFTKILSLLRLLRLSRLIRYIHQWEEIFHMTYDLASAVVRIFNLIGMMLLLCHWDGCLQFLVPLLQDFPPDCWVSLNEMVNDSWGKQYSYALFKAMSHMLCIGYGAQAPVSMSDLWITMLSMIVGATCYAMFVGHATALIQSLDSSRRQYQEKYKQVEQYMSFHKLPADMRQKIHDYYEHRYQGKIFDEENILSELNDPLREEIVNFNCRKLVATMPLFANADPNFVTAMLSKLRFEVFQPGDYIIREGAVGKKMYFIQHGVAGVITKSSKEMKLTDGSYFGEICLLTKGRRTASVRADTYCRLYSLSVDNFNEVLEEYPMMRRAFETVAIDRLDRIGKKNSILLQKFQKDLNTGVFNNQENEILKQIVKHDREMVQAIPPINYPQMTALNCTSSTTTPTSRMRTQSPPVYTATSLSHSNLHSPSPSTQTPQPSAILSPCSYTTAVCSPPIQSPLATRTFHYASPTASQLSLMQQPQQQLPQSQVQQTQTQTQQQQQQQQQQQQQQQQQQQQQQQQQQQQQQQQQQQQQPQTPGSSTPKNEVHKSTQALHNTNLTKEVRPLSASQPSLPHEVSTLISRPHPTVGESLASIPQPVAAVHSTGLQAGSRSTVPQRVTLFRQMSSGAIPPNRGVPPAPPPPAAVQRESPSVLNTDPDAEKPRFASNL

Turning to `CC(C)NCC(O)c1ccc(O)c(O)c1` (stereo not drawn) [isoproterenol], in the experiment on hMSCs loaded with HCN2, the “effect on expressed current” value was “shift in activation such that increased current flowed at more positive potentials”. For the same molecule, in experiment [1], the “threshold concentration on native pacemaker current” value is “approximately 1 nM”. Also, the “spontaneous rate during drug exposure” value with AdHCN2 infected culture turned out to be 63 beats/min. Also, the “positive shift of activation curve” value in experiment [2] is listed as “approximately 5 mV”.

For the molecule “minK: rat minK, the minimal K channel protein”, the “enhancement of HCN2 expression on coexpression” value in the experiment with HCN2 is “does not enhance”. The “enhancement of HCN1 conductance on coexpression” value in the experiment with HCN1 is recorded as “does not enhance”.
